The text below walks through data of PubChem BioAssay (NCI).

Among the test systems are NCI-H522 lung; HL-60(TB) leukemia; SNB-75 CNS; CCRF-CEM leukemia; BT-549 breast; CAKI-1 renal; HOP-92 NSCLC; NCI-H23 lung; K-562 leukemia; NCI/ADR-RES ovarian.
What all share (experiment): inhibition of tumour cell growth, NCI panel, 48 h

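Cultured in 96-well plates, cells were exposed to test compound for 48 hours across five concentrations. At the GI50, growth is halved. TGI marks complete inhibition of growth.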 Some results are limits rather than exact numbers.

As for `CCN(CC)c1ccc(N=C2C=C(C(=O)Nc3ccc(S(C)(=O)=O)cc3)C(=O)c3ccccc32)c(C)c1`, the GI50 is 16.7 µM in the assay with NCI-H522 lung; 14 µM in the assay on HL-60(TB) leukemia; 3.08 µM in the assay with SNB-75 CNS; more than 100 µM with CCRF-CEM leukemia; 0.831 µM in the assay with BT-549 breast; 81 µM in the assay on CAKI-1 renal. For the same molecule, the GI50 in the assay with HOP-92 NSCLC was more than 100 µM; in the assay on NCI-H23 lung, 82 µM; in the assay on K-562 leukemia it was 15.8 µM; in the assay on NCI/ADR-RES ovarian, 94 µM. Further, the TGI in the assay with NCI-H522 lung, in the assay on HL-60(TB) leukemia, with SNB-75 CNS, in the assay with CCRF-CEM leukemia, in the assay on BT-549 breast and with CAKI-1 renal was more than 100 µM in each case. Also, the TGI in the assay on HOP-92 NSCLC, in the assay on NCI-H23 lung, in the assay on K-562 leukemia and with NCI/ADR-RES ovarian was more than 100 µM throughout.

Turning to `COC(=O)Nc1nc2ccc(Oc3ccc(NC(=O)Nc4cccc(Br)c4)cc3)cc2[nH]1`, the GI50 was 0.351 µM with NCI-H522 lung; 1.06 µM in the assay with HL-60(TB) leukemia; 0.781 µM in the assay with SNB-75 CNS; 1.59 µM with CCRF-CEM leukemia; 11.3 µM with BT-549 breast; 8.74 µM in the assay on CAKI-1 renal. Moreover, the GI50 was 3.33 µM in the assay with HOP-92 NSCLC, 3.23 µM in the assay on NCI-H23 lung, 0.162 µM in the assay with K-562 leukemia and more than 6.8 µM in the assay with NCI/ADR-RES ovarian. Further, the TGI was 2.7 µM with NCI-H522 lung; more than 10.6 µM in the assay with HL-60(TB) leukemia; 6.13 µM in the assay on SNB-75 CNS; more than 25 µM in the assay on CCRF-CEM leukemia; more than 25 µM in the assay with BT-549 breast; more than 25 µM in the assay with CAKI-1 renal. In addition, the TGI with HOP-92 NSCLC was 12.7 µM; in the assay with NCI-H23 lung, more than 17.1 µM; in the assay on K-562 leukemia, more than 12 µM; with NCI/ADR-RES ovarian it was more than 25 µM.

For `Cc1cc(=O)c2cc(N=Cc3ccc([N+](=O)[O-])o3)ccc2o1`, the TGI in the assay with NCI-H522 lung, in the assay with HL-60(TB) leukemia, in the assay on SNB-75 CNS, in the assay with CCRF-CEM leukemia, in the assay on BT-549 breast and in the assay on CAKI-1 renal was more than 100 µM in each case. The TGI with HOP-92 NSCLC, with NCI-H23 lung, with K-562 leukemia and in the assay on NCI/ADR-RES ovarian was more than 100 µM in each case.

For `C=C(C)C(=O)OC1CC2(C)OC2CC(OC(C)=O)/C(C)=C/C2OC(=O)C(=C)C21` (stereo not given), the TGI in the assay on NCI-H522 lung is 0.851 µM; with HL-60(TB) leukemia, 1.14 µM; with SNB-75 CNS, 42.3 µM; in the assay on CCRF-CEM leukemia, 0.654 µM; in the assay on BT-549 breast, 5.41 µM; with CAKI-1 renal it was 9.84 µM. The TGI in the assay on HOP-92 NSCLC was determined as 12.5 µM; in the assay on NCI-H23 lung, 19.4 µM; with K-562 leukemia, 4.62 µM; with NCI/ADR-RES ovarian it was 18.2 µM.

As to `O=C(Nc1c(Cl)cc([N+](=O)[O-])cc1Cl)C(=O)C1C(=O)NC(=S)NC1=O`, the TGI in the assay with NCI-H522 lung, with HL-60(TB) leukemia, in the assay with SNB-75 CNS, with CCRF-CEM leukemia, with BT-549 breast and in the assay on CAKI-1 renal was more than 100 µM in each case. Further, the TGI with HOP-92 NSCLC, in the assay with NCI-H23 lung, with K-562 leukemia and in the assay on NCI/ADR-RES ovarian was more than 100 µM in each case.

`Cc1ccccc1S(=O)(=O)N1[C@H](c2ccc(Cl)cc2)C(C(=O)N[C@@H](Cc2ccccc2)C(N)=O)=C[C@@H]1C(C)(C)C`: the GI50 in the assay with NCI-H522 lung was 7.92 µM; with HL-60(TB) leukemia, 9.6 µM; with SNB-75 CNS it was 4.85 µM; in the assay on CCRF-CEM leukemia, 5.77 µM; in the assay with BT-549 breast, 8.63 µM; with CAKI-1 renal, 5.68 µM. In addition, the GI50 in the assay with HOP-92 NSCLC is 7.24 µM; in the assay on NCI-H23 lung it was 8.05 µM; in the assay with K-562 leukemia it was 7.1 µM; with NCI/ADR-RES ovarian, 6.69 µM. Also, the TGI in the assay with NCI-H522 lung amounted to 15.6 µM; in the assay with HL-60(TB) leukemia it was 31.2 µM; in the assay with SNB-75 CNS it was 12 µM; in the assay on CCRF-CEM leukemia it was 26.7 µM; with BT-549 breast, 20.9 µM; in the assay on CAKI-1 renal, 16.6 µM. Besides, the TGI with HOP-92 NSCLC is 17.4 µM; in the assay with NCI-H23 lung, 17.6 µM; in the assay on K-562 leukemia it was 35.4 µM; in the assay on NCI/ADR-RES ovarian it was 21 µM.

`O=C(Nc1ccc(Cl)cc1)c1cc2c(cc1O)[nH]c1ccccc12`: the GI50 with NCI-H522 lung was 2.88 µM; with HL-60(TB) leukemia, 4.43 µM; in the assay on SNB-75 CNS, 3.23 µM; in the assay on CCRF-CEM leukemia it was 4.37 µM; in the assay on BT-549 breast, 2.29 µM; with CAKI-1 renal, 2.26 µM. For the same molecule, the GI50 in the assay on HOP-92 NSCLC was 3.18 µM; in the assay with NCI-H23 lung, 2.54 µM; in the assay with K-562 leukemia it was 4.28 µM; with NCI/ADR-RES ovarian it was 2.87 µM. For the same molecule, the TGI in the assay on NCI-H522 lung is 10.6 µM; in the assay with HL-60(TB) leukemia, more than 100 µM; with SNB-75 CNS, 8.78 µM; with CCRF-CEM leukemia it was more than 100 µM; with BT-549 breast, 6.1 µM; in the assay with CAKI-1 renal, 6.02 µM. Besides, the TGI with HOP-92 NSCLC was 12.5 µM; in the assay with NCI-H23 lung it was 9.68 µM; with K-562 leukemia, more than 100 µM; in the assay on NCI/ADR-RES ovarian it was 8.93 µM.

On to `CC1=C(C(=O)Nc2ccc3[nH]ncc3c2)C(c2ccc(F)cc2)NC(=O)N1` (stereo not given), for which the GI50 is more than 18.2 µM with NCI-H522 lung; more than 25 µM in the assay on HL-60(TB) leukemia; 6.51 µM in the assay on SNB-75 CNS; more than 25 µM with CCRF-CEM leukemia; 16.9 µM with BT-549 breast; more than 25 µM in the assay on CAKI-1 renal. The GI50 is 0.425 µM in the assay on HOP-92 NSCLC, more than 25 µM in the assay with NCI-H23 lung, more than 25 µM in the assay on K-562 leukemia and more than 25 µM in the assay with NCI/ADR-RES ovarian. Further, the TGI in the assay with NCI-H522 lung, in the assay on HL-60(TB) leukemia, with SNB-75 CNS, in the assay on CCRF-CEM leukemia, in the assay with BT-549 breast and with CAKI-1 renal was more than 25 µM throughout. The TGI with HOP-92 NSCLC, with NCI-H23 lung, in the assay with K-562 leukemia and in the assay with NCI/ADR-RES ovarian was more than 25 µM in each case.

`NC1C2C(CC(=O)O)OCC=C3CN4CCC1(C(=O)C(=O)O)C4CC32` (stereo not given): the TGI with NCI-H522 lung, in the assay on HL-60(TB) leukemia, with SNB-75 CNS, in the assay on CCRF-CEM leukemia, in the assay on BT-549 breast and in the assay on CAKI-1 renal was more than 100 µM each time. Besides, the TGI in the assay on HOP-92 NSCLC, in the assay with NCI-H23 lung, with K-562 leukemia and with NCI/ADR-RES ovarian was more than 100 µM throughout.
